We go through three compounds from patent US12448705B2, “Bacteriophage compositions and methods of selection of components against specific bacteria” (priority 2016, dated 2025).

In general, IC50 refers to the point on the concentration scale where inhibition reaches its midpoint.

In brackets after ≈: the same amount, converted by molar mass.

Common to all, as to assay type: cell-based
Experiment [1] deals with vancomycin-resistant E. faecalis (VRE). Description: microbe, parasite or virus in culture.
Procedure: A culture of VRE was first grown in tryptic soy broth (Remel Cat #R455054) to an Optical Density (OD) of 0.5 at 600 nm. Tryptic soy with tetrazolium dye D (BioLog Cat #74224) was added to a 1% v/v ratio and then sterilized through a 0.22 μm filtration unit (Millipore Cat #SCGP00525). VRE stock phage was serially diluted in tryptic soy broth with dye in separate Eppendorf tubes to a final concentration of 10^7 pfu/ml. Vancomycin (Sigma, Cat #SBR00001-10 ml) was diluted separately in tryptic soy broth with tetrazolium dye to a concentration equal to 4 times the Minimal Inhibition Concentration (MIC) for the bacteria being used.
Briefly, microtiter plates for the phage-antibiotics synergy assay were prepared as follows. Tryptic soy broth with dye was added to the plate first. Next 50 μl of tryptic soy with tetrazolium dye was added to each well. […] The wells with Vancomycin were serially diluted 1:1 from row A down to row F. Phage were added to each well starting at 10^7 pfu/well in column 1 and then serially diluted 1:10 across from column 1 to 6. Individual phage was added at an MOI of 100. Finally all wells were inoculated with approximately 10^4 cfu of E. faecalis bacteria per well. […] The color change of all plates was recorded every 15 minutes over the course of the 48 hour incubation period.
Experiment [2] has as its system meropenem^R K. pneumoniae 4640. Description: Phage efficacy assay with meropenem and phage. The note with it: alone; meropenem 4 μg/ml; phage MOI 100; 48 hours at 37° C. Here is the method:
The assay is based on the interaction between lytic phage and bacteria in a liquid environment. In this liquid assay system, tetrazolium dye is added with media. During active growth of bacteria, cellular respiration reduces the tetrazolium dye and produces a color change that is captured by a camera. In this system as many as 400 phage efficacy assays in the presence of a targeted bacterium can be performed simultaneously but separately, thus allowing monitoring of the kinetics of bacterial growth and the development of resistance over the course of the experiment. The interpretation of such phage-bacterial interaction data in liquid environment permits the selection of phages that are highly virulent against the given bacteria, evidenced by a hold-time of at least 4 hours. Further selection of these phages for cocktail preparation is evaluated using the same liquid assay in the presence of various mixtures of these virulent phages.
Using the phage efficacy assay described in Example 1, 10^4 cfu of meropenem^R K. pneumoniae was grown at 37° C. for 48 hours in the following conditions: (a) alone; (b) meropenem or phage (MOI 100); and (c) meropenem and varying MOIs of phage (MOI 0.01-100). The concentration of meropenem used for the indicated cultures was 4 μg/ml. […] The readout of this assay is bacterial growth hold-time.

The subject of experiment [3] is A. baumannii strain TP3. Description: Minocycline ETEST. The note with it: Acinetobacter baumannii, TP3, read-out: IC50 of A. baumannii strain TP3 to minocycline by ETEST. As to the method: For example, this assay was performed in order to better understand the interaction between the phage cocktail and minocycline administered in combination to the patient discussed in Example 5. Specifically, each well of a 96 well plate contained tryptic soy media with 1% tetrazolium dye (v/v) for bacterial growth media. […] The wells with antibiotics were then serially diluted 1:1 from row A down to row F. Phage were then added to each well starting at 10^7 pfu per well in column 1 and then serially diluted 1:10 across from column 1 to 6. All wells were then inoculated with approximately 10^4 cfu of bacteria per well. This design allows for antibiotic dilutions going down the columns and dilutions of phage going across the rows. Columns 7 and 8 represent antibiotic control wells and rows G and H represent phage control wells. However, wells G7, G8, H7, and H8 represent bacteria only control wells. […] The IC50 of A. baumannii strain TP3 to minocycline by ETEST (bioMerieux USA, Durham, NC) was 4 μg/mL.

Another experiment has as its system A. baumannii isolate. Description: Minocycline susceptibility of patient's isolate. The note with it: day 115, previously obtained isolate.
Experiment [4] has as its system A. baumannii strain TP3. Kind of experiment: Checkerboard assay, phage cocktail and minocycline. The following applies: Acinetobacter baumannii, TP3, read-out: Minimal Inhibition Concentration (MIC).

Regarding `CN[C@H](CC(C)C)C(=O)N[C@H]1C(=O)N[C@@H](CC(N)=O)C(=O)N[C@H]2C(=O)N[C@H]3C(=O)N[C@H](C(=O)N[C@H](C(=O)O)c4cc(O)cc(O)c4-c4cc3ccc4O)[C@H](O)c3ccc(c(Cl)c3)Oc3cc2cc(c3O[C@@H]2O[C@H](CO)[C@@H](O)[C@H](O)[C@H]2O[C@H]2C[C@](C)(N)[C@H](O)[C@H](C)O2)Oc2ccc(cc2Cl)[C@H]1O` [Vancomycin], the “delay of bacterial growth” value in experiment [1] (10^4 cfu per well, phage MOI of 100, vancomycin 16 μg/ml, 48 hours at 37° C., FIG. 25) is recorded as “up to 18 hours”. In addition, the MIC in experiment [1] (Enterococcus faecalis, VRE, read-out: minimal inhibitory concentration for E. faecalis) is 16 µg/mL (≈ 11 µM).

On to `C[C@@H](O)[C@H]1C(=O)N2C(C(=O)O)=C(S[C@@H]3CN[C@H](C(=O)N(C)C)C3)[C@H](C)[C@H]12` [meropenem], for which, in experiment [2], the hold-time result is listed as “approximately 6 hours”.

Turning to `CN(C)c1ccc(O)c2c1C[C@H]1C[C@H]3[C@H](N(C)C)C(O)=C(C(N)=O)C(=O)[C@@]3(O)C(O)=C1C2=O` [minocycline], the IC50 in the experiment with A. baumannii strain TP3 [3] was 4 µg/mL. Besides, the “concentration at which isolate found susceptible” value in the experiment on A. baumannii isolate was 3 µg/mL. Further, the MIC in the experiment with A. baumannii strain TP3 [4] was determined as 32 µg/mL.
